Like-named read-outs stand apart in the source and are kept apart here.
Experiments:
CYP450 enzyme 3A4 = biological target: T1, CYP450 enzyme 3A4 (Homo sapiens, UniProt P08684); test: CYP inhibition test in human liver microsomes; type: in vitro ADME; details: human liver microsomes 0.1 mg/mL
T1 construct: Liver microsomes (purchased from BIOIVT, Cat. No.: X008070); tissue BIOIVT X008070; host or cells: human liver microsomes
Procedure: Experimental materials: human liver microsomes (purchased from BIOIVT);
PBS: 0.1 M KH2PO4 and K2HPO4 buffers, pH 7.4.
MgCl2: a certain amount of MgCl2 was weighed out and prepared into a 20 mM MgCl2 solution with PBS.
NADPH (Chinese name: reduced nicotinamide adenine dinucleotide phosphate, purchased from Sigma, Cat. No.: 481973-500 mg): a certain amount of NADPH was weighed out and a 5 mM solution of NADPH was prepared with a 20 mM MgCl2 solution, and the final incubation concentration was 1 mM.
Compounds: 3 mM, 1 mM, 0.3 mM, 0.1 mM, 0.03 mM, 0.01 mM, and 0 mM solutions of the test compounds were prepared with a DMSO-methanol (v:v = 1:9) solution, and the final incubation concentrations were 30 µM, 10 µM, 3 µM, 1 µM, 0.3 µM, 0.1 µM, and 0 µM. 30 µM, 10 µM, 3 µM, 1 µM, 0.3 µM, and 0 µM solutions of the positive compound (ketoconazole) were prepared with a DMSO-methanol (v:v = 1:9) solution, and the final incubation concentrations were 0.3 µM, 0.1 µM, 0.03 µM, 0.01 µM, 0.003 µM, and 0 µM.
Substrate working solutions: 200 µM and 15 µM solutions of substrate working solutions (testosterone and midazolam) were prepared with PBS, separately, and the final incubation concentrations were 40 µM and 3 µM.
Liver microsomes (purchased from BIOIVT, Cat. No.: X008070): the liver microsomes were diluted to […] with PBS, and the final incubation concentration was 0.1 mg/mL.
The prepared test compounds or positive compounds were added to a 96-well plate, and then the prepared human liver microsome working solution and substrate working solution were added. The mixture was mixed well. The mixture was pre-incubated in a thermostat incubator at 37 °C for 5 min, and then the prepared NADPH was added to start the reaction. The mixture was incubated for 5 min or 10 min. After the incubation was completed, a pre-cooled acetonitrile solution containing an internal standard was added to terminate the reaction. After protein precipitation, the mixture was vortexed for 5 min with shaking and then centrifuged at 4000 rpm for 10 min. The supernatant was collected and added to the 96-well plate. The content (peak concentration ratio) of the metabolites of the substrate was determined by an LC-MS/MS method. The residual activity and the half maximal inhibitory concentration (IC50) of the enzyme were calculated based on the detected content.
Percentage of remaining enzyme activity: The activity of each subtype of CYP450 enzyme was expressed as the amount of metabolite produced, and the percentage of remaining enzyme activity was calculated as follows: [formula]
The concentrations of the test substances and the corresponding residual activity percentages were fitted using a nonlinear model of Excel software, and the concentration of the test substances at which 50% inhibition of metabolite production was achieved was the IC50 value.

hERG = biological target: T2, hERG (Homo sapiens, UniProt Q12809); test: hERG test (Predictor hERG Fluorescence Polarization Assay Kit); type: binding; details: for inhibition at 3.5 h, 10 µM: 10 µM test substance, three duplicate wells; for IC50: only 10 µM tested
T2 construct: purchased ThermoFisher Scientific PV5365
T2 sequence (Q12809 whole entry): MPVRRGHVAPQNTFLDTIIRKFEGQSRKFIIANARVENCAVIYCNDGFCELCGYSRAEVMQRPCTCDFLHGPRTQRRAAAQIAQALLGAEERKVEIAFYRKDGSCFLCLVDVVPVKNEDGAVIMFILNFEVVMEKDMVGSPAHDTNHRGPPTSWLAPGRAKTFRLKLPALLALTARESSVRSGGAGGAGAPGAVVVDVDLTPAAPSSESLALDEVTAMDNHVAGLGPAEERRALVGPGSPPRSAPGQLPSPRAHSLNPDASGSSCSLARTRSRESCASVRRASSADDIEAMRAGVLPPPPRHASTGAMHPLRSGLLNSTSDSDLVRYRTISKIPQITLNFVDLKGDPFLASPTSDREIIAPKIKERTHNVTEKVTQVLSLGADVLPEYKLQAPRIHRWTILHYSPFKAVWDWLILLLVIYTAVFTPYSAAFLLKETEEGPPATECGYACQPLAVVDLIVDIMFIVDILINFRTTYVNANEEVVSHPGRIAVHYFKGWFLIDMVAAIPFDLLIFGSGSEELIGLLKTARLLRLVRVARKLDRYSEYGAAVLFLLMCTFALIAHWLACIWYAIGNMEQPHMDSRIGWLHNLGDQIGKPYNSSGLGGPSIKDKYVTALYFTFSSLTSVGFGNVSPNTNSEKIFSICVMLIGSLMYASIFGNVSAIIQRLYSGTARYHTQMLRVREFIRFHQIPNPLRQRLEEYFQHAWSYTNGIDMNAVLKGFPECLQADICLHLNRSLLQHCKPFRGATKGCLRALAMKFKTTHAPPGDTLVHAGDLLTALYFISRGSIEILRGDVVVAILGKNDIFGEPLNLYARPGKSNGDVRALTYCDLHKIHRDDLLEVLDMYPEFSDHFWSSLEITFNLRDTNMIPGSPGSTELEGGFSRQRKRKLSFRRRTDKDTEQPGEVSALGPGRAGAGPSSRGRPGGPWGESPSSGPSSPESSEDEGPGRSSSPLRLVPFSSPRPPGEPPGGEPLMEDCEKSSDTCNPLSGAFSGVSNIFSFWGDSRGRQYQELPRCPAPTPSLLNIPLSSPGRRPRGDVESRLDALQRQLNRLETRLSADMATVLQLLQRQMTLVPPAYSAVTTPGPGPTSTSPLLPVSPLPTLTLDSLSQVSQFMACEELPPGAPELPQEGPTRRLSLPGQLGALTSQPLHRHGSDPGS
Procedure: Predictor™ hERG Fluorescence Polarization Assay Kit (ThermoFisher Scientific, PV5365).
The procedures in the kit instructions were followed: 4× Predictor™ hERG Tracer Red, 4× E-4031, and 4× test substance solutions (final assay concentration: 10 µM) were prepared in advance. 5 µL Predictor™ hERG FP Assay Buffer and 5 µL Predictor™ hERG Membrane were added sequentially to the Assay Blank group in a 384-well plate. 2.5 µL Predictor™ hERG FP Assay Buffer, 2.5 µL of 4× E-4031, and 2.5 µL of 4× test substance were added to the negative control group, the positive control group, and the test substance group, respectively, and then 5 µL Predictor™ hERG Membrane and 2.5 µL of 4× Predictor™ hERG Tracer Red were sequentially added. The total volume of the experimental system was 10 µL, and three duplicate wells were set for each group. After loading, the plate was gently tapped to mix well and incubated at room temperature (25 °C) in the dark for 3.5 h. After the incubation was completed, the fluorescence polarization value mP was measured on a microplate reader, and G Factor was 2.14.
The inhibition rate of the test substance was calculated using the following formula: [formula]

wild-type HCT-116 cells = test: Cell proliferation (MTS), wild-type HCT-116; type: cell-based; details: Homo sapiens, 240 h; wild-type HCT-116, 10 days with compound, MTS reading; read-out: IC50 HCT116 WT
Method in brief: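 Wild-type HCT-116 cells were seeded at 100 cells/well in McCoy's 5A/10% FBS. From day 1 they were treated with compound in 3-fold dilutions (initial 20 µM, 8 points) for 10 days at 37° C. Proliferation was read by MTS on day 11, and IC50 was obtained from a four-parameter logistic fit.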

[1] = substrate midazolam 3 µM, read-out: IC50 3A4-Midazolam
[2] = substrate testosterone 40 µM, read-out: IC50 3A4-Testosterone
[3] = human, probe Predictor hERG Tracer Red

T1 sequence (P08684 whole entry): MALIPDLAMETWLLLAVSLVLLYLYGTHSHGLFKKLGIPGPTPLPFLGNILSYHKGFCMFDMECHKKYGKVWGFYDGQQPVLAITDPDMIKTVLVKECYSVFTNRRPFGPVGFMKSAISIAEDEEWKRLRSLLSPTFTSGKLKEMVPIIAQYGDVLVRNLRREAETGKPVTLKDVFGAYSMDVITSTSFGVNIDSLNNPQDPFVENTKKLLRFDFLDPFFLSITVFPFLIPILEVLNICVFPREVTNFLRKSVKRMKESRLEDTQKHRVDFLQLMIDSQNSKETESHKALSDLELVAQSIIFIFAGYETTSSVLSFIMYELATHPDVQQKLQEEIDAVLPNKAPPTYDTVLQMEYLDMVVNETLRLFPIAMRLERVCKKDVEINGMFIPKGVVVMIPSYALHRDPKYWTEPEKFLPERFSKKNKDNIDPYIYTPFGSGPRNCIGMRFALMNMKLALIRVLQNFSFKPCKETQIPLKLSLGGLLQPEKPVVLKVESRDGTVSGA

| IC50 (CYP450 enzyme 3A4; [1]) [µM] | IC50 (CYP450 enzyme 3A4; [2]) [µM] | IC50 (wild-type HCT-116 cells) [µM] | Structure (SMILES) | inhibition at 3.5 h, 10 µM (hERG; herg membrane fluorescence polarization) [%] | IC50 (hERG) [µM] | inhibition at 3.5 h, 10 µM (hERG; [3]) [%] |
| --- | --- | --- | --- | --- | --- | --- |
| > 30 | > 30 | 0.646 | CN(C(=O)c1cc2c3c(c(N)nc2cc1Cl)COC3)[C@@H]1COc2cc(C#Cc3cnn(C4CC4)c3)ccc21 [Compound 43A, (S)-4-amino-7-chloro-N-(6-((1-cyclopropyl-1H-pyrazol-4-yl)ethynyl)-2,3-dihydrobenzofuran-3-yl)-N-methyl-1,3-dihydrofuro[3,4-c]quinoline-8-carboxamide] |  | > 10 | 30.3 ± 29.9 |
| > 30 | > 30 | 0.431 | Cc1nn(C)cc1C#Cc1ccc2c(c1)OC[C@H]2N(C)C(=O)c1cc2c3c(c(N)nc2cc1Cl)COC3 [Compound 50A, (S)-4-amino-7-chloro-N-(6-((1,3-dimethyl-1H-pyrazol-4-yl)ethynyl)-2,3-dihydrobenzofuran-3-yl)-N-methyl-1,3-dihydrofuro[3,4-c]quinoline-8-carboxamide] |  | > 10 | 22.4 |

| Structure (SMILES) | IC50 (CYP450 enzyme 3A4; [1]) [µM] | IC50 (CYP450 enzyme 3A4; [2]) [µM] | IC50 (wild-type HCT-116 cells) [µM] | inhibition at 3.5 h, 10 µM (hERG; herg membrane fluorescence polarization) [%] | IC50 (hERG) [µM] | inhibition at 3.5 h, 10 µM (hERG; [3]) [%] |
| --- | --- | --- | --- | --- | --- | --- |
| CN(C(=O)c1cc2c(cc1F)nc(N)c1cnn(C)c12)[C@@H]1COc2cc(C#Cc3cnn(C)c3)ccc21 [Compound 5A, (S)-4-amino-7-fluoro-N,1-dimethyl-N-(6-((1-methyl-1H-pyrazol-4-yl)ethynyl)-2,3-dihydrobenzofuran-3-yl)-1H-pyrazolo[4,3-c]quinoline-8-carboxamide] | > 30 | > 30 | 0.17 | 27.7 | > 10 |  |
